Entries after “also recorded” stand apart in the source; their conditions may differ.
Experiments:
[1] = system: hSARS-CoV2; assay: Cytopathic effect and cell growth in Vero81 cells infected with hSARS-CoV2; type: cell-based, SARS-CoV-2; details: MOI 0.01, 72 hours
Experimental: Vero cells [ATCC® CCL-81™, ECACC, Sigma-Aldrich, France, hereafter “Vero81” cells] were cultured in Dulbecco’s modified Eagle medium (DMEM) supplemented with 10% fetal bovine serum (FBS) and GlutaMAX™ in a humidified atmosphere of 5% CO2 at 37° C.
Tested compound: solutions of the clofoctol were prepared in DMSO at concentrations required to achieve the desired concentrations in the experiment. Solutions were dispensed onto the living cells. The maximum concentration of DMSO was 0.15%.
Cell infection: cells were infected after addition of clofoctol at various concentrations or control solvents. The multiple of infection was 0.01. […]
The effect of clofoctol on Vero81 cells infected with hSARS-CoV2 was assessed by adding a range of concentrations of clofoctol, following 1:3 dilutions, prior to infection with hSARS-CoV2 at MOI 0.01 (Multiple Of Infection (MOI) 0.01 means that the amount of virus used is 0.01 per 1 cell) for 72 hours. […]
(§1) The results were obtained by analyzing the percentage of PI-positive nuclei expressed as the percentage of CPE relative to a scale defined by positive (0% infected cells) and negative (100% infected cells) controls. […]
The effect of clofoctol on Vero81 cells infected with hSARS-CoV2 was assessed by adding a range of concentrations of clofoctol, following 1:3 dilutions, prior to infection with hSARS-CoV2 at MOI 0.01 for 72 hours. […]

[2] = system: HCoV-229E-Rluc; type: cell-based; details: Huh-7 cells, 7h post-infection
[3] = system: SARS-CoV-2; type: in vivo, K18-human ACE2 expressing C57BL/6 mice; details: i.p. 62.5 mg/kg 1 h and 8 h after inoculation and twice daily at day 1; day 2 post-infection
[4] = system: hSARS-CoV2; assay: Cytopathic effect and cell growth in TMPRSS2-transduced Vero81 cells infected with hSARS-CoV2; type: cell-based, SARS-CoV-2; details: MOI 0.01, 72 hours
Experimental: Vero-81 cells were transduced with a lentivirus expressing TMPRSS2. TMPRSS2 was cloned into pTRIP vector, lentivectors were produced by transfection of HEK293T cells with pTRIP-TMPRSS2, phCMV-VSVG and HIV gag-pol with Turbofect™ (ThermoFischer) according to the manufacturer’s instruction. Supernatants containing lentiviral vectors were used to transduce cells. Then cells were used in experiments 72 h after the transduction.
Tested compound: solutions of the clofoctol were prepared in DMSO at concentrations required to achieve the desired concentrations in the experiment. Solutions were dispensed onto the living cells. The maximum concentration of DMSO was 0.15%. […]
The effect of clofoctol on TMPRSS2-transduced Vero81 cells infected with hSARS-CoV2 was assessed by adding a range of concentrations of clofoctol, following 1:3 dilutions, prior to infection with hSARS-CoV2 at MOI 0.01 for 72 hours. […]
as §1
The results were obtained by analyzing the number of living cells expressed as the percentage of cell growth improvement relative to a scale defined by normal cell growth (not infected controls) and no cell growth (infected controls). […]

[5] = Pharmacokinetics in C57BL/6J mice, plasma and lung concentration; type: in vivo; details: i.p. 62.5 mg/kg single dose or twice daily for two days
Experimental: Clofoctol diluted in 1.75% final Kolliphor® RH40 (07076, Sigma) and 1.4% final ethanol in a sodium chloride solution was used for intraperitoneal injection. Female 8-10 week-old C57BL/6J mice were treated i.p. with a single dose of clofoctol (62.5 mg/kg) and were sacrificed at different time points thereafter (FIG. 9, left panel). In a separate experiment, the mice were treated i.p. twice daily with a dose of clofoctol (62.5 mg/kg) for two days, and the mice were sacrificed 1 h after the last injection (FIG. 9, right panel). The concentration of clofoctol in the plasma and lung of treated mice was measured as follows: plasma samples and lung tissues were collected and treated with absolute ethanol, in a ratio of 1 to 10 and 1 to 50, respectively. Lung tissues were homogenized with a mechanical lysis system (Tissue Lyzer II). Supernatants were obtained by centrifugation before injection in LC-MS/MS. Samples were analysed using UPLC system Acquity I Class (Waters), combined with a triple quadrupole mass spectrometer Xevo TQD (Waters). The column, placed at 40° C., was an Acquity BEH C8 50*2.1 mm, 1.7 µm column (Waters) and the following mobile phases were used: 5 mM ammonium formate pH 3.75 in water, as solvent (A) and 5 mM ammonium formate pH 3.75 in acetonitrile as solvent (B). […]

[6] = system: SARS-CoV-2; type: cell-based; details: Calu-3 cells, MOI 0.25, 24 h
[7] = system: hSARS-CoV2; assay: Viral genomic replication (RT-qPCR) in Vero81 and TMPRSS2-transduced Vero81 cells; type: cell-based, SARS-CoV-2
Experimental: Cell culture: Vero81 cells and Vero-81 cells transduced with TMPRSS2 were cultured in Dulbecco’s modified Eagle medium (DMEM) supplemented with 10% fetal bovine serum (FBS) and GlutaMAX™ in a humidified atmosphere of 5% CO2 at 37° C.
Tested compound: solutions of clofoctol were prepared in DMSO at concentrations required to achieve the desired concentrations in the experiment. Solutions were dispensed onto the living cells. The maximum concentration of DMSO was 0.15%.
Cell infection: cells were infected after addition of clofoctol at various concentrations or control solvents. The multiple of infection was 0.25. […]
RNA dosing: after 6 hours of incubation, total cellular RNA was extracted by using the Nucleospin RNA kit (Macherey-Nagel) as recommended by the manufacturer and SARS-CoV-2 genome were measured by quantitative RT-PCR. […] Primers and probe (WHO protocol) targeting the open reading frame for the E gene were used. […]
The effect of clofoctol on Vero81 and TMPRSS2-transduced Vero81 cells infected with hSARS-CoV2 was assessed by adding a range of concentrations of clofoctol, following 1:2,5 dilutions, prior to infection with hSARS-CoV2 at MOI 0.25 for 6 hours. […]
Results were obtained by dosing viral RNA and the viral load was expressed as the ratio of the viral RNA on the total RNA (RNAt) of the sample. […]

[8] = system: hSARS-CoV-2; assay: Infected human bronchial epithelia (MucilAir), secreted virus and viral RNA; type: cell-based, SARS-CoV-2; details: apical administration, MOI 0.2, 72 hours
Experimental: Human bronchial epithelia (MucilAir™, available from the company Epithelix) were treated through apical administration of clofoctol. The epithelia were first washed with Mucilair® culture medium containing different concentrations of clofoctol prior to infection by hSARS-CoV-2 at MOI 0.2 for 1 hour, still in the presence of clofoctol. Then, the inoculum was removed and epithelia were washed with PBS before addition at the apical pole of 25 µl of Mucilair® culture medium containing different concentrations of clofoctol. After 72 hours of incubation at 37° C., 200 µl of MucilAir™ culture medium was added at the apical pole of the epithelia and harvested, after incubating for 5 minutes. These supernatants were used to quantify the amount of secreted virus as assessed by TCID50. The results are shown in FIG. 15 in which the dotted line represents the limit of detection […]. In addition, total RNAs were extracted by using the Nucleospin RNA kit (Macherey-Nagel) prior to genome quantification by RT-qPCR. The data in both FIGS. 15 and 16 represent the average and standard-deviation of technical triplicates (n=3).

[9] = system: SARS-CoV-2; type: cell-based; details: Vero-81 and Vero-81-TMPRSS2 cells, MOI 0.25, treatment after 1 h infection, 16 h
[10] = read-out: Cmax in human lung tissue; patients undergoing pulmonary resection or pneumonectomy, clofoctol administered before or during surgery; cited from earlier work

SMILES: CC(C)(C)CC(C)(C)c1ccc(O)c(Cc2ccc(Cl)cc2Cl)c1 [clofoctol, 2-(2,4-Dichlorobenzyl)-4-(1,1,3,3-tetramethylbutyl)phenol]
- IC95, concentration reducing 95% of the CPE (percentage of PI-positive nuclei) [1]: 9.2 µM
- EC95, concentration at which 95% of maximum response is observed (cell growth improvement) ([1]; estimated): ~21 µM
- Activity against HCoV-229E (luciferase activity, percentage of control) [2]: active against HCoV-229E
- SARS-CoV-2 infection in mice (lung viral load by titration and RT-qPCR) [3]: significantly reduces SARS-CoV-2 infection in mice
- IC95 of the CPE (percentage of PI-positive nuclei) [4]: 8.7 µM
- EC95 (cell growth improvement) ([4]; estimated): ~25 µM
- Distribution in lungs (concentration in plasma and lung) [5]: distributed in lungs at very significant levels
- SARS-CoV-2 replication (viral RNA by RT-qPCR) [6]: inhibits SARS-CoV-2 replication in Calu-3 cells
- IC95 of viral load (ratio of viral RNA on total RNA) ([7]; Vero81 and TMPRSS2-transduced Vero81 cells, MOI 0.25, 6 hours): 11 µM
- Genomic replication of SARS-CoV-2 (viral RNA by RT-qPCR, normalized to total RNA) ([7]; Vero-81 and Vero-81-TMPRSS2 cells, MOI 0.25, 6 h, increasing concentrations): inhibits the replication of hSARS-CoV2 in infected cells; also recorded: inhibits the genomic replication of SARS-CoV-2
- Factor of reduction of virus titer in the mucus of human bronchial epithelium (TCID50) ([8]; 30 µM): more than 100
- Viral RNA quantitation (RT-qPCR) in human bronchial epithelia ([8]; not normalized): decrease of viral RNA quantitation
- Secreted infectious virus (TCID50) in supernatants [9]: inhibits the secretion of hSARS-CoV-2 by infected cells; also recorded: SARS-CoV-2 load decreases as the concentration of clofoctol increases
- Cmax [10]: ~250 µM

— patent US20230233483A1, “COMPOUND AND METHOD FOR THE TREATMENT OF CORONAVIRUSES” (Apteeus, priority 2020, published 2023)
